Results: US9181266B2, “2-piperidin-1-yl-acetamide compounds for use as tankyrase inhibitors” (NOVARTIS AG, priority 2011, dated 2015)

Key:
[1] = tested on: Wnt ligand-induced signaling in HEK293 cells; experiment: Wnt-responsive Super-TOpFlash (STF) luciferase reporter gene assay; format: cell-based; conditions: Homo sapiens, Wnt3A condition medium
Procedure: Cellular Reporter Gene Assay to Determine Compound Inhibition of Wnt Signaling Activity
Compound activity in inhibiting Wnt ligand-induced signaling was measured using a Wnt-responsive Super-TOpFlash (STF) luciferase reporter gene assay in HEK293 cells. On day 1 of the assay, cells were plated at a density of 8000 cells per well of 384-well plate in 25 μl medium containing 5% fetal bovine serum (FBS). On the second day, […] condition medium (CM) produced from mouse L cells was added to the cells to induce Wnt signaling, followed by addition of 5 μL of compounds each well in 10-point serial dilution. On the third day, the luciferase activity was measured by the Bright-Glo™ Luciferase Assay System following manufacture's protocol (Promega, E2620). The Inhibition was calculated as: (Maximum Wnt-induced signaling−Sample)/(Maximum Wnt-induced signaling−Background)*100. “Maximum Wnt-induced signaling” is the STF signal level induced by 20% Wnt3A CM without compound; and “Background” is the STF signal level without the addition of Wnt3A CM or compound.

[2] = tested on: Axin2 protein in SW480 cells; experiment: Cellular ELISA assay of Axin2 protein stabilization; format: cell-based; conditions: Homo sapiens, 24 hrs, read-out: Axin AC50
Procedure: Cellular ELISA Assay to Determine Compound Effect on Stabilizing the Axin2 Protein Compound activity in stabilizing the Axin2 protein was measured by Sandwich Enzyme-Linked Immuosorbent (ELISA) assay in the colorectal cell line SW480. 30,000 SW480 cells were seeded per well in 96-well plate and incubated overnight prior to compound treatment. […] Cells were then washed with 100 μL of cold Phosphate Buffer Saline (PBS), and lysed in 125 μl of cold 1× lysis buffer (Cell Signaling Technology, 9803) supplemented with Protease inhibitor (Roche, 11836170) and Phosphatase inhibitors (Sigma, P2850, P5726). For the ELISA assay, anti Axin-2 capture antibody (Strategic Diagnostics) antibody was diluted to a concentration of 1 μg/ml (1:1000) in Carbonate Coating buffer, pH 9.2 (Sigma, C3041-50CAP). […], of the diluted anti Axin-2 capture antibody per well was then used to coat the 96-well ELISA plate (Thermo Electron Corp., MicroLite 1 flat bottom plate #7571) overnight at 4° C. […] After blocking, plates were then washed three times with 300 μl/well of wash solution. 100 μL of prepared SW480 cell lysate was then added to each well and incubated at room temperature for 2 hours while shaking gently. After washing, 100 μL of Biotinylated anti-Axin2 antibody (CST, 2151) was added to each well and incubated room temperature for 2 hours. 100 μL of Streptavidin-HRP (R&D systems, DY998) diluted 1:200 in 1% BSA/PBS was then added in each well and incubate for 30 mins at R/T in the dark.

[3] = tested on: Non-small lung cancer ABC-1 cells; experiment: Cellular proliferation assay (CellTiter-Glo); format: cell-based; conditions: Homo sapiens, 72 h; ABC-1 cells, 3 days of compound treatment; read-out: ABC-1 IC50
Procedure: Cellular Proliferation Assay to Determine Compound Inhibition of Cancer Cell Growth
Viable cells were measured after 3 days of compound treatment using the CellTiter-Glo assay (Promega, G7570). Assay was performed following the manufacture protocol.

[4] = biological target: human tankyrase 1 PARP catalytic domain, TNKS1P (Homo sapiens (Human), UniProt O95271); experiment: TNKS1 autoparsylation assay (LC/MS detection of nicotinamide); conditions: read-out: TNKS1 AP IC50, 20 nM enzyme, 250 μM β-NAD+, 60 min
[5] = biological target: tankyrase 2 protein PARP domain, TNKS2P (Homo sapiens (Human), UniProt Q9H2K2); experiment: TNKS2 autoparsylation assay (LC/MS detection of nicotinamide); conditions: read-out: TNKS2 AP IC50, 20 nM enzyme, 250 μM β-NAD+, 60 min
Chain of tankyrase 2 protein PARP domain, TNKS2P (Q9H2K2 959-1164): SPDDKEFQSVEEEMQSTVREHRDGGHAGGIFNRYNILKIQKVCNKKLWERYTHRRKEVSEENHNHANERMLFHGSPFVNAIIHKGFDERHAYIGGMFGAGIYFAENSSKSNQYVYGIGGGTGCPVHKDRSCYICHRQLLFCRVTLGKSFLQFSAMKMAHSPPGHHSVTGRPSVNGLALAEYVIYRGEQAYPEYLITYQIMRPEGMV

Chain of human tankyrase 1 PARP catalytic domain, TNKS1P (O95271 1112-1317): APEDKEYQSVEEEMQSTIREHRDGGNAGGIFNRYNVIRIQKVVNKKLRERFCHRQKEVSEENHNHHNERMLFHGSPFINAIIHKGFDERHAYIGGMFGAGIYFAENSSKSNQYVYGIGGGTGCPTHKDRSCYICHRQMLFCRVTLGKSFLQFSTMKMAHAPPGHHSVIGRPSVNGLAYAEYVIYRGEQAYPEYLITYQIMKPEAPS

Row | SMILES | IC50 [3] | IC50 [4] | IC50 [5] | IC50 [1] | AC50 [2]
1 | O=C(CN1CCC(c2nnc(-c3ccc(F)cc3)o2)CC1)NCc1nc2c(c(=O)[nH]1)COCC2 [Example 55, 2-{4-[5-(4-Fluoro-phenyl)-[1,3,4]oxadiazol-2-yl]piperidin-1-yl}-N-(4-oxo-3,5,7,8-tetrahydro-4H-pyrano[4,3-d]pyrimidin-2-ylmethyl)-acetamide] | 83 nM | 487 ± 16 nM | 78 ± 4 nM | 4.7 ± 1.8 nM | 25 ± 5 nM
2 | O=C(CN1CCC2(CCc3ccccc3C2=O)CC1)NCc1nc2c(c(=O)[nH]1)COCC2 [Example 65, 2-(1-oxo-3,4-dihydro-1H-spiro[naphthalene-2,4′-piperidine]-1′-yl)-N-((4-oxo-4,5,7,8-tetrahydro-3H-pyrano[4,3-d]pyrimidin-2-yl)methyl)acetamide] | 26 nM | 3100 ± 400 nM | 760 ± 15 nM | 0.7 ± 0.2 nM | 12 ± 3 nM
3 | COc1ccc(C(=O)C2CCN(CC(=O)NCc3nc4c(c(=O)[nH]3)COCC4)CC2)cc1OC [Example 90, 2-[4-(3,4-Dimethoxy-benzoyl)-piperidin-1-yl]-N-(4-oxo-3,5,7,8-tetrahydro-4H-pyrano[4,3-c]pyrimidin-2-ylmethyl)-acetamide] | 38 nM | 42 ± 2 nM | 18 nM | 10.3 ± 0.8 nM | 20 ± 5 nM
4 | COc1ccc2c(c1)CC1(CCN(CC(=O)N(Cc3nc4c(c(=O)[nH]3)COCC4)CC(F)F)CC1)C2=O [Example 64, N-(2,2-Difluoro-ethyl)-2-(5-methoxy-1-oxo-1,3-dihydrospiro[indene-2,4′-piperidine]-1′-yl)-N-((4-oxo-4,5,7,8-tetrahydro-3H-pyrano[4,3-d]pyrimidin-2-yl)methyl)acetamide] | 12 nM | 10 ± 1.4 nM | 2.5 ± 0.7 nM | 1.2 ± 0.5 nM | 9 ± 3 nM
5 | O=C(CN1CCC(c2nnc(-c3ccccc3)o2)CC1)NCc1nc2c(c(=O)[nH]1)COCC2 [Example 52, N-(4-Oxo-3,5,7,8-tetrahydro-4H-pyrano[4,3-d]pyrimidin-2-ylmethyl)-2-[4-(5-phenyl-[1,3,4]oxadiazol-2-yl)-piperidin-1-yl]-acetamide] | 2800 nM | 1190 ± 150 nM | 170 ± 30 nM | 155 ± 8 nM | 1090 ± 170 nM
6 | COc1ccc(C(=O)C2CCN(CC(=O)NCc3cc4c(c(=O)o3)COCC4)CC2)cc1 [Example 96, 2-[4-(4-methoxy-benzoyl)-piperidin-1-yl]-N-(1-oxo-5,8-dihydro-1H,6H-pyrano[3,4-c]pyran-3-ylmethyl)-acetamide] | 65 ± 23 nM | 328 ± 1 nM | 133 ± 31 nM | 13 ± 3 nM | 24 ± 8 nM
7 | O=C(CN1CCC(C(=O)N2CCc3ccccc3C2)CC1)NCc1nc2c(c(=O)[nH]1)COCC2 [Example 79, N-((4-Oxo-4,5,7,8-tetrahydro-3H-pyrano[4,3-d]pyrimidin-2-yl)methyl)-2-(4-(1,2,3,4-tetrahydroisoquinoline-2-carbonyl)piperidin-1-yl)acetamide] | 26 nM | 3020 ± 49 nM | 815 ± 28 nM | 6.5 ± 2.7 nM | 27 ± 3 nM
8 | O=C(CN1CCC(C(=O)c2ccc3c(c2)OCO3)CC1)NCc1nc2c(c(=O)[nH]1)COCC2 [Example 92, 2-[4-(Benzo[1,3]dioxole-5-carbonyl)-piperidin-1-yl]-N-(4-oxo-3,5,7,8-tetrahydro-4H-pyrano[4,3-c]pyrimidin-2-ylmethyl)-acetamide] | 346 nM | 129 ± 1 nM | 43 nM | 9.1 ± 1.2 nM | 154 ± 25 nM
9 | COc1ccc(C(=O)C2CCN(CC(=O)NCc3nc4c(c(=O)[nH]3)COCC4)CC2)cc1Cl [Example 94, 2-[4-(3-Chloro-4-methoxy-benzoyl)-piperidin-1-yl]-N-(4-oxo-3,5,7,8-tetrahydro-4H-pyrano[4,3-d]pyrimidin-2-ylmethyl)-acetamide] | 16 nM | 29 ± 3 nM | 10.5 ± 0.7 nM | 2.4 ± 0.3 nM | 11 ± 2 nM
10 | O=C(CN1CCC2(CC1)Cc1cc(F)ccc1C2=O)N(Cc1nc2c(c(=O)[nH]1)COCC2)CC1CC1 [Example 62, N-(Cyclopropylmethyl)-2-(5-fluoro-1-oxo-1,3-dihydrospiro[indene-2,4′-piperidine]-1′-yl)-N-((4-oxo-4,5,7,8-tetrahydro-3H-pyrano[4,3-d]pyrimidin-2-yl)methyl)acetamide] | 470 nM | 17 ± 1 nM | 4 ± 1 nM | 115 ± 17 nM | 560 ± 150 nM

More lines, main results first:

Row | IC50 [3] | IC50 [4] | IC50 [5] | SMILES | IC50 [1] | AC50 [2]
11 | 691 nM | 714 ± 5 nM | 371 ± 3 nM | COc1ccc(C(=O)C2CCN(CC(=O)N(Cc3nc4c(c(=O)[nH]3)CCCCC4)CC3CC3)CC2)cc1 [Example 7, N-(Cyclopropylmethyl)-2-(4-(4-methoxybenzoyl)piperidin-1-yl)-N-((4-oxo-4,5,6,7,8,9-hexahydro-3H-cyclohepta[d]pyrimidin-2-yl)methyl)acetamide] | 180 ± 70 nM | 680 ± 90 nM
12 | 158 nM | 10 ± 1.4 nM | 1 ± 1.4 nM | COc1ccc2c(c1)CC1(CCN(CC(=O)N(Cc3nc4c(c(=O)[nH]3)COCC4)CC3CC3)CC1)C2=O [Example 63, N-(Cyclopropylmethyl)-2-(5-methoxy-1-oxo-1,3-dihydrospiro[indene-2,4′-piperidine]-1′-yl)-N-((4-oxo-4,5,7,8-tetrahydro-3H-pyrano[4,3-d]pyrimidin-2-yl)methyl)acetamide] | 11.9 ± 3.1 nM | 137 ± 31 nM
13 | 236 nM | 105 ± 1 nM | 32 ± 1 nM | O=C(c1ccccn1)C1CCN(CC(=O)N(Cc2nc3c(c(=O)[nH]2)COCC3)CC2CC2)CC1 [Example 76, N-Cyclopropylmethyl-N-(4-oxo-3,5,7,8-tetrahydro-4H-pyrano[4,3-d]pyrimidin-2-ylmethyl)-2-[4-(pyridine-2-carbonyl)-piperidin-1-yl]-acetamide] | 32 ± 10 nM | 176 ± 14 nM
14 | 2710 nM | 1170 ± 50 nM | 764 ± 51 nM | O=C(c1ccc(OCc2ccccc2)cc1)C1CCN(CC(=O)N(Cc2nc3c(c(=O)[nH]2)COCC3)CC2CC2)CC1 [Example 77] | 55 ± 8 nM | 4480 ± 90 nM
15 | 75 nM | 31 ± 1 nM | 5 ± 1 nM | O=C(c1ccccc1)C1CCN(CC(=O)N(Cc2nc3c(c(=O)[nH]2)COCC3)CC(F)F)CC1 [Example 68, 2-(4-Benzoyl-piperidin-1-yl)-N-(2,2-difluoro-ethyl)-N-(4-oxo-3,5,7,8-tetrahydro-4H-pyrano[4,3-d]pyrimidin-2-ylmethyl)-acetamide] | 5.2 ± 0.8 nM | 41 ± 7 nM
16 | 709 nM | 35 ± 4 nM | 18 ± 1 nM | O=C(c1ccc(Cl)cc1)C1CCN(CC(=O)N(Cc2nc3c(c(=O)[nH]2)COCC3)CC(F)F)CC1 [Example 69, 2-[4-(4-Chloro-benzoyl)-piperidin-1-yl]-N-(2,2-difluoro-ethyl)-N-(4-oxo-3,5,7,8-tetrahydro-4H-pyrano[4,3-c]pyrimidin-2-ylmethyl)-acetamide] | 20 ± 9 nM | 930 ± 450 nM
17 | 1050 ± 390 nM | 64 ± 8 nM |  | O=C(CN1CCC(C(=O)c2ccc(F)cc2)CC1)NCc1nc2c(c(=O)[nH]1)COCC2 [Example 1, 2-(4-(4-Fluorobenzoyl)piperidin-1-yl)-N-((4-oxo-4,5,7,8-tetrahydro-3H-pyrano[4,3-d]pyrimidin-2-yl)methyl)acetamide] |  | 880 ± 210 nM
